Experimental data taken from patent US20100190706A1, “Stable Non-Aqueous Pharmaceutical Compositions” (NOVO NORDISK A/S, priority 2007, published 2010).
Where two headings read alike, the source gives them in different places.

How the values were obtained:
[1] = cited from earlier work
[2] = Isoelectric point (pI) of the insulinotropic peptide; format: physicochemical
Text: The pI of a protein can be determined experimentally by electrophoresis techniques such as electrofocusing:
A pH gradient is established in an anticonvective medium, such as a polyacrylamide gel. When a protein is introduced in to the system it will migrate under influence of an electric field applied across the gel. Positive charged proteins will migrate to the cathode. Eventually, the migrating protein reaches a point in the pH gradient where its net electrical charge is zero and is said to be focused. This is the isoelectric pH (pI) of the protein. The protein is then fixed on the gel and stained. The pI of the protein can then be determined by comparison of the position of the protein on the gel relative to marker molecules with known pI values.

[3] = protic, very hydrophilic and polar solvents; lyophilized from aqueous solution of pH 6.0; cited from earlier work

Row | Molecule | Dielectricity constant, ε* ([1]; 293.2 Kelvin) | also measured
1 | OCCCO [1,3-propanediol] | 35.1 | –
2 | CCO [Ethanol] | 25.3 | –
3 | CC(O)CO (stereo not drawn) [1,2-propanediol [propylene glycol], 1,2-propanediol] | – | Dielectricity constant, ε* ([1]; 303.2 Kelvin): 27.5
4 | Arg34, Lys26(N∈-(γ-Glu(Na-hexadecanoyl)))-GLP-1(7-37) | – | pI [2]: 5.6
5 | O [Water] | 80.1 | –
6 | CO [Methanol] | 33.0 | –
7 | CC(C)O [Isopropanol] | 20.18 | –
8 | CC(O)CCO (stereo not drawn) [1,3-butanediol] | 28.8 | –
9 | lysozyme: lysozyme lyophilized from aqueous solution of pH 6.0 (Klibanov et al) | – | solubility [3]: more than 10 mg/ml
